Test results from patent US5466716A, “Liposomal trimethylsphingosine” (The Biomembrane Institute, priority 1994, dated 1995).
Entries after “also recorded” stand apart in the source; their conditions may differ.

Assays:
[1] = test system: human lung cancer cell line LU-65; test: tritiated thymidine incorporation, tumor cell growth (LU-65); assay type: cell-based; details: LU-65, FIG. 2B
Description: (§1) FIGS. 2A-2C show the effect of sphingosine derivatives on human tumor cell growth. In FIG. 2A the growth of human colonic cancer cell line COLO-205 was monitored. In FIG. 2B the growth of human lung cancer cell line LU-65 was monitored. In FIG. 2C the growth of human gastric cancer cell line MKN-74 was monitored. In each Figure the ordinate represents the percent inhibition of tritiated thymidine incorporation, the solid circles represent sphingosine, the open circles represent N,N-dimethylsphingosine and the triangles represent N,N,N-trimethylsphingosine.
(§2) An in vitro assay relying on tritiated thymidine incorporation can be used to ascertain the effect of various compounds on cell proliferation. Briefly, tumor cells are seeded in flat bottom 96 well plates (Corning, N.Y.) at a concentration of 2×10^4 cells per well. The cells are cultured for 2 days in DMEM containing various concentrations of sphingoid, which is added as a PBS solution. The medium then is supplemented with tritiated thymidine at a concentration of 0.5 μCi per well. Following a six hour incubation the cells are collected using the PHD Cell Harvester (Cambridge Technology, Cambridge, Mass.) and amounts of incorporated radioactivity are determined after adding a suitable cell lysing agent and scintillation cocktail, such as ScintiVerse BD (Fisher Scientific, Fairlawn, Calif.) which performs both functions. […]

[2] = test system: human gastric cancer cell line MKN-74; test: tritiated thymidine incorporation, tumor cell growth (MKN-74); assay type: cell-based; details: MKN-74, FIG. 2C
Description: as §1, §2

protein kinase-C = protein kinase-C activity (A431 cell PK-C, liposome method, histone III-S or myelin basic protein); assay type: biochemical, human; details: histone III-S and myelin basic protein substrates, FIG. 4
Description: FIGS. 4A and 4B depict the effect of sphingosine derivatives on protein kinase-C activity in A431 cells. The standard liposome method of Kraft and Anderson (Nature 301, 621, 1983) was used. […] In FIG. 4B radioactive incorporation into histone III-s is depicted on the ordinate. In both panels SP represents sphingosine, MMS represents N-monomethylsphingosine, DMS represents N,N-dimethylsphingosineand TMS represents N,N,N-trimethylsphingosine.
In another in vitro assay, the influence of various compounds on PK-C activity can be monitored. Certain tumor cells present high levels of PK-C activity. The human epidermoid carcinoma cell line A-431 (ATCC No. CRL 1555) can be used in a bioassay for PK-C activity as described in Igarashi et al. (supra). Briefly, phosphatidylserine (5 μg/tube) and 1,2-diolein (0.05 μg/tube), with or without an appropriate quantity of a sphingosine derivative sample, are added in an organic solvent, ethanol or ethanol/chloroform, to a 1.5 ml tube (Sarstedt) and the mixture is evaporated under a N2 stream. The lipid mixture is sonicated in about 30 μl of 20 mM Tris-HCl (pH 7.5) for 30 minutes. The resulting liposomes are supplemented with a buffer mixture comprising 25 mM Tris-HCl (pH 7.5), 10 mM MgCl2, 400 μM EDTA, 50 μM EGTA, 500 μM CaCl2, 200 μg/ml histone III-S or myelin basic protein and 20 μM γ[^32 P]-ATP (2×10^6 cpm) to a final volume of about 90 μl. […]

BL6 cells = test: BL6 lung metastatic deposits in mice; assay type: in vivo
Description: FIGS. 6A-C depict the effect of N,N,N-trimethylsphingosine on lung metastatic deposits after intravenous injection of BL6 cells into mice. Each graph represents the mean and standard deviation of results obtained in 8 animals. In FIG. 6A the open bars depict the total number of lung colony deposits; the stippled bars depict the number of lung colonies with a diameter of greater than 1 mm; and the solid bars depict the number of lung colonies with a diameter of less than 1 mm. Bars 1-3 depict the number of deposits observed 14 days after injection. Bars 4-6 depict the number of lung colony deposits in animals that received BL6 cells and 1 minute later received 0.2 mg of N,N,N-trimethylsphingosine (TMS). […]
In FIG. 6B the number of lung colonies was determined 16 days after treatment, the treatment consisting of varying doses and routes of administration. […]
In FIG. 6C the dose responsiveness of BL6 metastatic potential to TMS is presented. […] Sixteen days after treatment, the mice were sacrificed, lungs opened and the number of colonies in the lungs were counted under a dissecting microscope.
The effectiveness of TMS in vivo is summarized in the graphs comprising FIG. 6. BL6 cells were injected into mice and metastatic deposits in the lung were assessed after various treatments including route and timing of administration.

With `CCCCCCCCCCCCC/C=C/[C@@H](O)[C@H](CO)[N+](C)(C)C` [TMS, N,N,N-trimethylsphingosine] the “inhibition of tumor cell growth” value [1] was “superior to sphingosine; also recorded: showed an advantage over DMS”, the “inhibition of tumor cell growth” value [2] was “superior to sphingosine; also recorded: showed an advantage over DMS” and the “ability to inhibit PK-C” value (protein kinase-C) was “superior to the other compounds”. The “dose responsiveness of lung tumor colonization” value (BL6 cells; FIG. 6B, 6C) was “distinct dose responsiveness” and the “suppression of lung colonization and tumor development” value (BL6 cells; irrespective of route or timing, FIG. 6) was “effective in suppressing lung colonization and tumor development”.
